Experimental findings from PubChem BioAssay (NCI) are described below.

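96-well plates; 48 h exposure; 5 concentrations. Endpoints by linear interpolation between flanking doses. Not reached: highest tested concentration assigned. TGI denotes the concentration required for complete inhibition of growth.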

Among the test systems are A549 NSCLC; RPMI-8226 leukemia; SF-268 CNS; SF-295 CNS; SF-539 CNS; SK-MEL-28 melanoma; SNB-75 CNS; SW-620 colon; UO-31 renal.
Holding throughout (assay): inhibition of tumour cell growth, NCI panel, 48 h

On to `CCOC(=O)C(Cl)(Cl)/S(=N\S(=O)(=O)c1ccccc1)NC(=O)c1ccccc1` (stereo not drawn), for which the TGI in the assay on A549 NSCLC, in the assay on RPMI-8226 leukemia, with SF-268 CNS, in the assay with SF-295 CNS, in the assay with SF-539 CNS and in the assay with SK-MEL-28 melanoma was more than 100 µM throughout. For the same compound, the TGI with SNB-75 CNS, in the assay with SW-620 colon and in the assay on UO-31 renal was more than 100 µM in each case.

Consider `O=C(NC(COC(=O)C(Cc1ccccc1)NC(=O)c1ccccc1)Cc1ccccc1)c1ccccc1` (stereo not drawn), for which the TGI in the assay with A549 NSCLC, in the assay with RPMI-8226 leukemia, with SF-268 CNS, with SF-295 CNS, in the assay with SF-539 CNS and in the assay with SK-MEL-28 melanoma was more than 50 µM each time. For the same compound, the TGI in the assay with SNB-75 CNS, in the assay on SW-620 colon and in the assay on UO-31 renal was more than 50 µM in each case.

On to `S=c1[nH]c2ccc(Br)cc2c(=S)s1`, for which the TGI is more than 100 µM with A549 NSCLC; 95.4 µM with RPMI-8226 leukemia; more than 100 µM in the assay on SF-268 CNS; 85.1 µM in the assay on SF-295 CNS; more than 100 µM with SF-539 CNS; more than 100 µM with SK-MEL-28 melanoma. Besides, the TGI was 93 µM in the assay with SNB-75 CNS, more than 100 µM with SW-620 colon and 53.5 µM with UO-31 renal.

`O=C(O)c1cc(-c2ccc3c(O)c(O)ccc3c2)ccc1O`: the TGI in the assay on A549 NSCLC is more than 75 µM; in the assay on RPMI-8226 leukemia, 49.1 µM; in the assay with SF-268 CNS it was more than 75 µM; with SF-295 CNS it was 29.1 µM; in the assay with SF-539 CNS it was more than 75 µM; with SK-MEL-28 melanoma, more than 75 µM. For the same compound, the TGI in the assay with SNB-75 CNS was more than 75 µM; in the assay with SW-620 colon, 36.8 µM; in the assay on UO-31 renal, more than 75 µM.

On to `CCCCNC(=S)N/N=C/c1cccc(C)n1`, for which the TGI with A549 NSCLC was more than 100 µM; with RPMI-8226 leukemia, more than 100 µM; in the assay with SF-268 CNS, more than 100 µM; in the assay with SF-295 CNS it was more than 100 µM; in the assay with SF-539 CNS, 96.8 µM; with SK-MEL-28 melanoma, more than 100 µM. Besides, the TGI in the assay on SNB-75 CNS was more than 100 µM; in the assay with SW-620 colon it was more than 100 µM; in the assay with UO-31 renal, 78.5 µM.

With `COc1ccc(/C=C2\C[C@H]3[C@@H]4CCC5=C/C(=N/O)CC[C@]5(C)[C@H]4CC[C@]3(C)\C2=N\O)cc1OC`, the TGI in the assay with A549 NSCLC is more than 100 µM; in the assay with RPMI-8226 leukemia, 60.3 µM; with SF-268 CNS it was more than 100 µM; with SF-295 CNS, 88.4 µM; with SF-539 CNS it was more than 100 µM; in the assay with SK-MEL-28 melanoma, more than 100 µM. The TGI with SNB-75 CNS, in the assay with SW-620 colon and in the assay on UO-31 renal was more than 100 µM in each case.

Regarding `NNC1=N/C(=C\c2ccco2)C(Cl)=N1`, the TGI in the assay on A549 NSCLC was more than 100 µM; with RPMI-8226 leukemia, 41.8 µM; in the assay with SF-268 CNS, more than 100 µM; with SF-295 CNS, more than 100 µM; with SF-539 CNS, 57.4 µM; with SK-MEL-28 melanoma, more than 100 µM. Also, the TGI with SNB-75 CNS, in the assay on SW-620 colon and with UO-31 renal was more than 100 µM each time.

In the case of `O=C(O)C(SC1=NNC2(C(=O)N1)c1ccccc1-c1ccccc12)SC1=NNC2(C(=O)N1)c1ccccc1-c1ccccc12`, the TGI with A549 NSCLC, with RPMI-8226 leukemia, in the assay on SF-268 CNS, in the assay on SF-295 CNS, in the assay on SF-539 CNS and in the assay on SK-MEL-28 melanoma was more than 10 µM in each case. In addition, the TGI with SNB-75 CNS, in the assay with SW-620 colon and in the assay on UO-31 renal was more than 10 µM throughout.

With `COc1cc2nc(-c3cccs3)oc(=O)c2cc1OC`, the TGI in the assay on A549 NSCLC, in the assay on RPMI-8226 leukemia, in the assay on SF-268 CNS, in the assay with SF-295 CNS, with SF-539 CNS and in the assay on SK-MEL-28 melanoma was more than 100 µM in each case. The TGI in the assay with SNB-75 CNS, in the assay on SW-620 colon and in the assay with UO-31 renal was more than 100 µM throughout.

Regarding `c1ccc2c(c1)c1c(n2CCOCCN2CCOCC2)CCCC1`, the TGI is more than 100 µM in the assay on A549 NSCLC; 53.9 µM with RPMI-8226 leukemia; more than 100 µM in the assay with SF-268 CNS; 50 µM with SF-295 CNS; more than 100 µM with SF-539 CNS; 52 µM in the assay with SK-MEL-28 melanoma. The TGI with SNB-75 CNS was 70.2 µM; in the assay with SW-620 colon, more than 100 µM; in the assay with UO-31 renal it was more than 100 µM.

Turning to `O=C(CNc1c(Cl)cccc1Cl)NC1C=Cc2ccc(S(=O)(=O)Nc3c(Cl)cccc3Cl)cc2C1=O` (stereo not drawn), the TGI with A549 NSCLC, with RPMI-8226 leukemia, with SF-268 CNS, in the assay on SF-295 CNS, in the assay on SF-539 CNS and with SK-MEL-28 melanoma was more than 100 µM throughout. Further, the TGI in the assay on SNB-75 CNS, in the assay on SW-620 colon and in the assay on UO-31 renal was more than 100 µM throughout.

Take `CC(=O)O/N=C/c1c2ccccc2cc2ccccc12`: the TGI with A549 NSCLC, in the assay with RPMI-8226 leukemia, with SF-268 CNS, with SF-295 CNS, in the assay with SF-539 CNS and in the assay on SK-MEL-28 melanoma was more than 100 µM throughout. In addition, the TGI with SNB-75 CNS is 51.5 µM; with SW-620 colon it was more than 100 µM; in the assay with UO-31 renal, more than 100 µM.
